From the supplement of paper PMC10307832

What was measured:
Test in all cases: relative viability (nuclei count vs DMSO), 5 days (fraction); higher = more cells survive
NCI-H2405 = system: NCI-H2405
Method in brief: (§1)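 Relative viability is defined as nuclei in treated wells over nuclei in vehicle wells. Duplicate plates were run and medians reported. Lung cancer cell lines in 1536-well plates were dosed by pin tool one day after seeding, with one drug or with a fixed anchor-drug dose plus five library-drug doses (not always all listed) in √10 steps, and nuclei were counted after 5 days.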

NCI-H1734 = system: NCI-H1734
Method in brief: as §1

NCI-H2009 = system: NCI-H2009
Method in brief: as §1

HCC-366 = system: HCC-366
Method in brief: as §1

PC-14 = system: PC-14
Method in brief: as §1

ChaGo-K-1 = system: ChaGo-K-1
Method in brief: as §1

EPLC-272H = system: EPLC-272H
Method in brief: as §1

NCI-H1944 = system: NCI-H1944
Method in brief: as §1

HCC-15 = system: HCC-15
Method in brief: as §1

LCLC-103H = system: LCLC-103H
Method in brief: as §1

NCI-H2347 = system: NCI-H2347
Method in brief: as §1

NCI-H3122 = system: NCI-H3122
Method in brief: as §1

NCI-H2085 = system: NCI-H2085
Method in brief: as §1

NCI-H2023 = system: NCI-H2023
Method in brief: as §1

SW 1573 = system: SW 1573
Method in brief: as §1

NCI-H1793 = system: NCI-H1793
Method in brief: as §1

HCC-44 = system: HCC-44
Method in brief: as §1

NCI-H1355 = system: NCI-H1355
Method in brief: as §1

HCC-827 = system: HCC-827
Method in brief: as §1

ABC-1 = system: ABC-1
Method in brief: as §1

COR-L23 = system: COR-L23
Method in brief: as §1

NCI-H2228 = system: NCI-H2228
Method in brief: as §1

**Q.** With `CN1CCN(CCOc2cc(OC3CCOCC3)c3c(Nc4c(Cl)ccc5c4OCO5)ncnc3c2)CC1` [Saracatinib] + CS(=O)(=O)N1CCN(Cc2cc3nc(-c4cccc5[nH]ncc45)nc(N4CCOCC4)c3s2)CC1 [Pictilisib] (partner 1 µM) as the molecule, how does the relative viability (NCI-H2405; first compound 0.02 µM) read?
**A.** 0.441

**Q.** What about the relative viability (NCI-H2405; first compound 0.2 µM) of the same molecule?
**A.** 0.366

**Q.** What about the relative viability (NCI-H2405; first compound 0.6325 µM) of the same molecule?
**A.** 0.352

**Q.** What about the relative viability (NCI-H2405; first compound 2 µM) of the same molecule?
**A.** 0.22

**Q.** And the relative viability (NCI-H1734; first compound 0.02 µM)?
**A.** 0.475

**Q.** What about the relative viability (NCI-H1734; first compound 0.6325 µM) of the same molecule?
**A.** 0.435

**Q.** What about the relative viability (NCI-H1734; first compound 2 µM) of the same molecule?
**A.** 0.387

**Q.** What about the relative viability (NCI-H2009; first compound 0.02 µM) of the same molecule?
**A.** 0.759

**Q.** And the relative viability (NCI-H2009; first compound 0.2 µM)?
**A.** 0.465

**Q.** What about the relative viability (NCI-H2009; first compound 0.6325 µM) of the same molecule?
**A.** 0.644

**Q.** And the relative viability (NCI-H2009; first compound 2 µM)?
**A.** 0.4

**Q.** What about the relative viability (HCC-366; first compound 0.02 µM) of the same molecule?
**A.** 0.132

**Q.** And the relative viability (HCC-366; first compound 0.2 µM)?
**A.** 0.151

**Q.** And the relative viability (HCC-366; first compound 0.6325 µM)?
**A.** 0.107

**Q.** And the relative viability (HCC-366; first compound 2 µM)?
**A.** 0.103

**Q.** What about the relative viability (PC-14; first compound 0.02 µM) of the same molecule?
**A.** 0.593

**Q.** What about the relative viability (PC-14; first compound 0.2 µM) of the same molecule?
**A.** 0.337

**Q.** And the relative viability (PC-14; first compound 0.6325 µM)?
**A.** 0.0893

**Q.** What about the relative viability (PC-14; first compound 2 µM) of the same molecule?
**A.** 0.0627

**Q.** What about the relative viability (ChaGo-K-1; first compound 0.02 µM) of the same molecule?
**A.** 0.784

**Q.** And the relative viability (ChaGo-K-1; first compound 0.2 µM)?
**A.** 0.521

**Q.** And the relative viability (ChaGo-K-1; first compound 0.6325 µM)?
**A.** 0.903

**Q.** And the relative viability (ChaGo-K-1; first compound 2 µM)?
**A.** 0.379

**Q.** And the relative viability (EPLC-272H; first compound 0.02 µM)?
**A.** 0.337

**Q.** And the relative viability (EPLC-272H; first compound 0.2 µM)?
**A.** 0.298

**Q.** What about the relative viability (EPLC-272H; first compound 0.6325 µM) of the same molecule?
**A.** 0.388

**Q.** What about the relative viability (EPLC-272H; first compound 2 µM) of the same molecule?
**A.** 0.232

**Q.** What about the relative viability (NCI-H1944; first compound 0.02 µM) of the same molecule?
**A.** 0.335

**Q.** What about the relative viability (NCI-H1944; first compound 0.6325 µM) of the same molecule?
**A.** 0.288

**Q.** And the relative viability (NCI-H1944; first compound 2 µM)?
**A.** 0.278

**Q.** And the relative viability (HCC-15; first compound 0.02 µM)?
**A.** 0.797

**Q.** And the relative viability (HCC-15; first compound 0.2 µM)?
**A.** 0.585

**Q.** And the relative viability (HCC-15; first compound 0.6325 µM)?
**A.** 0.684

**Q.** And the relative viability (HCC-15; first compound 2 µM)?
**A.** 0.539

**Q.** What about the relative viability (LCLC-103H; first compound 0.02 µM) of the same molecule?
**A.** 0.547

**Q.** And the relative viability (LCLC-103H; first compound 0.2 µM)?
**A.** 0.671

**Q.** What about the relative viability (LCLC-103H; first compound 0.6325 µM) of the same molecule?
**A.** 0.649

**Q.** And the relative viability (LCLC-103H; first compound 2 µM)?
**A.** 0.455

**Q.** What about the relative viability (NCI-H2347; first compound 0.02 µM) of the same molecule?
**A.** 0.654

**Q.** What about the relative viability (NCI-H2347; first compound 0.2 µM) of the same molecule?
**A.** 0.6

**Q.** What about the relative viability (NCI-H2347; first compound 0.6325 µM) of the same molecule?
**A.** 0.772

**Q.** And the relative viability (NCI-H2347; first compound 2 µM)?
**A.** 0.527

**Q.** And the relative viability (NCI-H3122; first compound 0.02 µM)?
**A.** 0.573

**Q.** What about the relative viability (NCI-H3122; first compound 0.6325 µM) of the same molecule?
**A.** 0.586

**Q.** And the relative viability (NCI-H3122; first compound 2 µM)?
**A.** 0.454

**Q.** And the relative viability (NCI-H2085; first compound 0.02 µM)?
**A.** 0.474

**Q.** What about the relative viability (NCI-H2085; first compound 0.2 µM) of the same molecule?
**A.** 0.345

**Q.** And the relative viability (NCI-H2085; first compound 0.6325 µM)?
**A.** 0.481

**Q.** What about the relative viability (NCI-H2085; first compound 2 µM) of the same molecule?
**A.** 0.377

**Q.** What about the relative viability (NCI-H2023; first compound 0.02 µM) of the same molecule?
**A.** 0.267

**Q.** What about the relative viability (NCI-H2023; first compound 0.2 µM) of the same molecule?
**A.** 0.317

**Q.** What about the relative viability (NCI-H2023; first compound 0.6325 µM) of the same molecule?
**A.** 0.242

**Q.** What about the relative viability (NCI-H2023; first compound 2 µM) of the same molecule?
**A.** 0.197

**Q.** What about the relative viability (SW 1573; first compound 0.02 µM) of the same molecule?
**A.** 0.47

**Q.** And the relative viability (SW 1573; first compound 0.2 µM)?
**A.** 0.451

**Q.** What about the relative viability (SW 1573; first compound 0.6325 µM) of the same molecule?
**A.** 0.456

**Q.** What about the relative viability (SW 1573; first compound 2 µM) of the same molecule?
**A.** 0.295

**Q.** What about the relative viability (NCI-H1793; first compound 0.02 µM) of the same molecule?
**A.** 0.345

**Q.** And the relative viability (NCI-H1793; first compound 0.2 µM)?
**A.** 0.213

**Q.** What about the relative viability (NCI-H1793; first compound 0.6325 µM) of the same molecule?
**A.** 0.41

**Q.** What about the relative viability (NCI-H1793; first compound 2 µM) of the same molecule?
**A.** 0.408

**Q.** And the relative viability (HCC-44; first compound 0.02 µM)?
**A.** 0.527

**Q.** What about the relative viability (HCC-44; first compound 0.2 µM) of the same molecule?
**A.** 0.598

**Q.** What about the relative viability (HCC-44; first compound 0.6325 µM) of the same molecule?
**A.** 0.854

**Q.** What about the relative viability (HCC-44; first compound 2 µM) of the same molecule?
**A.** 0.442

**Q.** And the relative viability (NCI-H1355; first compound 0.02 µM)?
**A.** 0.497

**Q.** What about the relative viability (NCI-H1355; first compound 0.2 µM) of the same molecule?
**A.** 0.467

**Q.** And the relative viability (NCI-H1355; first compound 0.6325 µM)?
**A.** 0.516

**Q.** What about the relative viability (NCI-H1355; first compound 2 µM) of the same molecule?
**A.** 0.461

**Q.** And the relative viability (HCC-827; first compound 0.02 µM)?
**A.** 1.1

**Q.** What about the relative viability (HCC-827; first compound 0.2 µM) of the same molecule?
**A.** 0.499

**Q.** And the relative viability (HCC-827; first compound 0.6325 µM)?
**A.** 0.501

**Q.** What about the relative viability (HCC-827; first compound 2 µM) of the same molecule?
**A.** 0.323

**Q.** What about the relative viability (ABC-1; first compound 0.02 µM) of the same molecule?
**A.** 0.695

**Q.** And the relative viability (ABC-1; first compound 0.2 µM)?
**A.** 0.938

**Q.** And the relative viability (ABC-1; first compound 0.6325 µM)?
**A.** 0.85

**Q.** And the relative viability (ABC-1; first compound 2 µM)?
**A.** 0.822

**Q.** What about the relative viability (COR-L23; first compound 0.02 µM) of the same molecule?
**A.** 0.721

**Q.** And the relative viability (COR-L23; first compound 0.2 µM)?
**A.** 0.568

**Q.** And the relative viability (COR-L23; first compound 0.6325 µM)?
**A.** 0.75

**Q.** And the relative viability (COR-L23; first compound 2 µM)?
**A.** 0.675

**Q.** What about the relative viability (NCI-H2228; first compound 0.02 µM) of the same molecule?
**A.** 0.385

**Q.** And the relative viability (NCI-H2228; first compound 0.2 µM)?
**A.** 0.206

**Q.** What about the relative viability (NCI-H2228; first compound 0.6325 µM) of the same molecule?
**A.** 0.244

**Q.** And the relative viability (NCI-H2228; first compound 2 µM)?
**A.** 0.207
